Source: ChEMBL document CHEMBL1201862, “PubChem BioAssay data set” (2004)
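Values below derive from 48-hour exposures of cells grown in 96-well plates, with endpoints linearly interpolated between the two concentrations bracketing the appropriate inhibition level. At the GI50, growth is halved.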 Calls of active or inactive are those of the source. Rule as the data show it: active = GI50 up to about 1.1 µM and inactive = higher.

Columns and labels:
Assay in all cases: inhibition of tumour cell growth, NCI panel, 48 h
[1] = tested on: SR
[2] = tested on: UO-31
[3] = tested on: OVCAR-8
[4] = tested on: NCI/ADR-RES
[5] = tested on: SN12C
[6] = tested on: HOP-92
[7] = tested on: HCT-116
[8] = tested on: KM12
[9] = tested on: MDA-MB-435
[10] = tested on: SNB-19
[11] = tested on: U-251
[12] = tested on: MCF7
[13] = tested on: NCI-H23
[14] = tested on: IGROV-1
[15] = tested on: T47D
[16] = tested on: TK-10
[17] = tested on: EKVX
[18] = tested on: SF-295
[19] = tested on: UACC-257
[20] = tested on: 786-0
[21] = tested on: SK-OV-3
[22] = tested on: HT-29
[23] = tested on: UACC-62
[24] = tested on: SK-MEL-5
[25] = tested on: NCI-H522
[26] = tested on: RPMI-8226
[27] = tested on: COLO 205
[28] = tested on: SF-268
[29] = tested on: HCT-15
[30] = tested on: BT-549
[31] = tested on: MOLT-4
[32] = tested on: ACHN
[33] = tested on: K562
[34] = tested on: Hs-578T
[35] = tested on: M14
[36] = tested on: HL-60
[37] = tested on: Malme-3M
[38] = tested on: HOP-62
[39] = tested on: SW-620
[40] = tested on: PC-3
[41] = tested on: OVCAR-5
[42] = tested on: A549
[43] = tested on: MDA-MB-231
[44] = tested on: SF-539
[45] = tested on: MDA-N
[46] = tested on: NCI-H460
[47] = tested on: SK-MEL-2
[48] = tested on: CAKI-1
[49] = tested on: OVCAR-3
[50] = tested on: CCRF-CEM
[51] = tested on: DU-145
[52] = tested on: A498
[53] = tested on: NCI-H226
[54] = tested on: LOX IMVI
[55] = tested on: RXF 393
[56] = tested on: OVCAR-4
[57] = tested on: SK-MEL-28
[58] = tested on: SNB-75
[59] = tested on: HCC 2998

## O=P1(Oc2ccccc2)N=P(c2ccccc2)(c2ccccc2)C=C(c2ccc(Cl)cc2)N1 (stereo not given)
[1]
  GI50: 3.6 µM (inactive)
[2]
  GI50: 12 µM (inactive)
[3]
  GI50: 14.4 µM (inactive)
[4]
  GI50: 10.9 µM (inactive)
[5]
  GI50: 16.6 µM (inactive)
[6]
  GI50: 9.18 µM (inactive)
[7]
  GI50: 7.23 µM (inactive)
[8]
  GI50: 10.3 µM (inactive)
[9]
  GI50: 4.44 µM (inactive)
[10]
  GI50: 15.3 µM (inactive)
[11]
  GI50: 5.51 µM (inactive)
[12]
  GI50: 2.45 µM (inactive)
[13]
  GI50: 15.3 µM (inactive)
[14]
  GI50: 12.2 µM (inactive)
[15]
  GI50: 5.19 µM (inactive)
[16]
  GI50: 13.1 µM (inactive)
[17]
  GI50: 7.89 µM (inactive)
[18]
  GI50: 6.92 µM (inactive)
[19]
  GI50: 15.4 µM (inactive)
[20]
  GI50: 13.4 µM (inactive)
[21]
  GI50: 13.2 µM (inactive)
[22]
  GI50: 4.29 µM (inactive)
[23]
  GI50: 13.9 µM (inactive)
[24]
  GI50: 2.25 µM (inactive)
[25]
  GI50: 10.1 µM (inactive)
[26]
  GI50: 3.03 µM (inactive)
[27]
  GI50: 5.15 µM (inactive)
[28]
  GI50: 11.6 µM (inactive)
[29]
  GI50: 9.84 µM
[30]
  GI50: 16 µM (inactive)
[31]
  GI50: 5.18 µM (inactive)
[32]
  GI50: 13 µM (inactive)
[33]
  GI50: 5.43 µM (inactive)
[34]
  GI50: 16.7 µM (inactive)
[35]
  GI50: 7.67 µM (inactive)
[36]
  GI50: 4.86 µM (inactive)
[37]
  GI50: 15.5 µM (inactive)
[38]
  GI50: 16.4 µM (inactive)
[39]
  GI50: 12.3 µM (inactive)
[40]
  GI50: 6.58 µM (inactive)
[41]
  GI50: 13.1 µM (inactive)
[42]
  GI50: 3.97 µM (inactive)
[43]
  GI50: 16.5 µM (inactive)
[44]
  GI50: 15.3 µM (inactive)
[45]
  GI50: 8.87 µM (inactive)
[46]
  GI50: 5.14 µM (inactive)
[47]
  GI50: 13.5 µM (inactive)
[48]
  GI50: 9.66 µM (inactive)
[49]
  GI50: 4.51 µM (inactive)
[50]
  GI50: 9.38 µM (inactive)
[51]
  GI50: 13.9 µM (inactive)

## Clc1ncnc2c1nc(C#Cc1ccccc1)n2C1CCCCO1 (stereo not given)
[2]
  GI50: 1.93 µM (inactive)
[52]
  GI50: 2.63 µM (inactive)
[3]
  GI50: 3.3 µM (inactive)
[4]
  GI50: 2.75 µM (inactive)
[5]
  GI50: 1.78 µM (inactive)
[6]
  GI50: 1.8 µM (inactive)
[7]
  GI50: 1.82 µM (inactive)
[8]
  GI50: 1.63 µM (inactive)
[9]
  GI50: 2.35 µM (inactive)
[10]
  GI50: 2.53 µM (inactive)
[11]
  GI50: 2.08 µM (inactive)
[12]
  GI50: 1.37 µM (inactive)
[53]
  GI50: 2.49 µM (inactive)
[54]
  GI50: 2.02 µM (inactive)
[13]
  GI50: 1.99 µM (inactive)
[15]
  GI50: 1.7 µM (inactive)
[55]
  GI50: 1.51 µM (inactive)
[16]
  GI50: 2.63 µM (inactive)
[17]
  GI50: 1.95 µM (inactive)
[18]
  GI50: 4.47 µM (inactive)
[19]
  GI50: 2.61 µM (inactive)
[20]
  GI50: 1.42 µM (inactive)
[21]
  GI50: 7.67 µM (inactive)
[22]
  GI50: 1.91 µM (inactive)
[56]
  GI50: 1.87 µM (inactive)
[23]
  GI50: 2.42 µM (inactive)
[24]
  GI50: 2.21 µM (inactive)
[25]
  GI50: 1.81 µM (inactive)
[57]
  GI50: 2.21 µM (inactive)
[58]
  GI50: 2.6 µM (inactive)
[27]
  GI50: 1.62 µM (inactive)
[28]
  GI50: 2.32 µM (inactive)
[29]
  GI50: 1.14 µM
[30]
  GI50: 1.9 µM (inactive)
[31]
  GI50: 2.02 µM (inactive)
[32]
  GI50: 1.69 µM (inactive)
[33]
  GI50: 1.38 µM (inactive)
[34]
  GI50: 3.95 µM (inactive)
[35]
  GI50: 2.14 µM (inactive)
[36]
  GI50: 2.59 µM (inactive)
[37]
  GI50: 1.95 µM (inactive)
[38]
  GI50: 2.38 µM (inactive)
[39]
  GI50: 1.86 µM (inactive)
[40]
  GI50: 3.27 µM (inactive)
[41]
  GI50: 2.42 µM (inactive)
[59]
  GI50: 2.1 µM (inactive)
[42]
  GI50: 1.99 µM (inactive)
[43]
  GI50: 3.95 µM (inactive)
[44]
  GI50: 1.91 µM (inactive)
[45]
  GI50: 1.94 µM (inactive)
[46]
  GI50: 3.14 µM (inactive)
[47]
  GI50: 2.47 µM (inactive)
[48]
  GI50: 1.97 µM (inactive)
[49]
  GI50: 1.37 µM (inactive)
[50]
  GI50: 2.33 µM (inactive)
[51]
  GI50: 1.47 µM (inactive)

## O=C(O)C1CC(c2ccccc2)=NN1c1ccccc1 (stereo not given)
[2]
  GI50: 39.9 µM (inactive)
[52]
  GI50: 51.4 µM (inactive)
[3]
  GI50: > 100 µM (inactive)
[4]
  GI50: 48.5 µM (inactive)
[5]
  GI50: > 100 µM (inactive)
[6]
  GI50: 69.3 µM (inactive)
[7]
  GI50: 66.7 µM (inactive)
[8]
  GI50: 42.9 µM (inactive)
[9]
  GI50: 63.4 µM (inactive)
[10]
  GI50: > 100 µM (inactive)
[11]
  GI50: 62.1 µM (inactive)
[12]
  GI50: 48 µM (inactive)
[53]
  GI50: 36.8 µM (inactive)
[54]
  GI50: 41.9 µM (inactive)
[13]
  GI50: 52.6 µM (inactive)
[14]
  GI50: > 100 µM (inactive)
[15]
  GI50: 52 µM (inactive)
[55]
  GI50: 87.1 µM (inactive)
[16]
  GI50: 64 µM (inactive)
[17]
  GI50: 24 µM (inactive)
[18]
  GI50: 64.6 µM (inactive)
[19]
  GI50: 51.9 µM (inactive)
[20]
  GI50: 56.9 µM (inactive)
[21]
  GI50: > 100 µM (inactive)
[22]
  GI50: 34.2 µM (inactive)
[56]
  GI50: 67.6 µM (inactive)
[23]
  GI50: > 100 µM (inactive)
[24]
  GI50: 34.4 µM (inactive)
[25]
  GI50: 27.4 µM (inactive)
[57]
  GI50: > 100 µM (inactive)
[58]
  GI50: > 100 µM (inactive)
[26]
  GI50: 40.3 µM (inactive)
[27]
  GI50: 50.9 µM (inactive)
[28]
  GI50: 81.1 µM (inactive)
[29]
  GI50: 34 µM
[30]
  GI50: 66.5 µM (inactive)
[31]
  GI50: 31.7 µM (inactive)
[32]
  GI50: 91.6 µM (inactive)
[33]
  GI50: 47.5 µM (inactive)
[34]
  GI50: 25.4 µM (inactive)
[35]
  GI50: 75 µM (inactive)
[36]
  GI50: 89.7 µM (inactive)
[37]
  GI50: 32.5 µM (inactive)
[38]
  GI50: > 100 µM (inactive)
[39]
  GI50: 92.3 µM (inactive)
[40]
  GI50: 41 µM (inactive)
[41]
  GI50: > 100 µM (inactive)
[59]
  GI50: 24.1 µM (inactive)
[42]
  GI50: 70 µM (inactive)
[43]
  GI50: > 100 µM (inactive)
[44]
  GI50: 93.5 µM (inactive)
[45]
  GI50: 99.5 µM (inactive)
[46]
  GI50: 54.7 µM (inactive)
[47]
  GI50: 69.5 µM (inactive)
[48]
  GI50: 43.6 µM (inactive)
[49]
  GI50: 42 µM (inactive)
[50]
  GI50: 48.4 µM (inactive)
[51]
  GI50: 96.8 µM (inactive)
